Some test systems named below: NCI-H226 lung; TK-10 renal; SF-295 CNS; IGROV1 ovarian; HS 578T breast; T-47D breast; OVCAR-5 ovarian; SK-MEL-5 melanoma; HL-60(TB) leukemia; RPMI-8226 leukemia.
Common to all, as to experiment: DTP human tumour cell line panel, 48 h

Broadly, the TGI is the concentration at which net growth stops. Higher therefore signals lower sensitivity of the cells.

Each structure is given as a SMILES string. Values joined by “and” are separate entries in the source; they are usually repeats but may differ in a detail not shown here. Equal entries are not always repeated.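 Assay format: 96-well plates, 48-hour exposure. Definition used: TGI = concentration required for complete inhibition of growth.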 Where a SMILES comes first, the peptide text is derived from it. Bridges are numbered along the chain shown (N, C = ends). [ ]: non-standard residue; d: D form. The star is where a group is joined. ξ: configuration not given here. X26 = O=C(/C=C/C=C/C=C/C=C/C=C/C(=O)*)NC1=C(O)CCC1=O; NMeA = CN[C@@H](C)C(=O)O; ξF = NC(Cc1ccccc1)C(=O)O; ξA = CC(N)C(=O)O

As to `CC1(C)C2CC(=O)C1(C)C(O)C2Br` (stereo unspecified), the TGI with NCI-H226 lung, in the assay on TK-10 renal, with SF-295 CNS, in the assay on IGROV1 ovarian, in the assay with HS 578T breast and in the assay with T-47D breast was greater than 100 µM each time. In addition, the TGI in the assay on OVCAR-5 ovarian, in the assay on SK-MEL-5 melanoma and in the assay with HL-60(TB) leukemia was greater than 100 µM each time.

In the case of `C(/C=C(\Nc1ccccc1)C12CC3CC(CC(C3)C1)C2)=Nc1ccccc1`, the TGI with NCI-H226 lung is 38.5 µM; in the assay with TK-10 renal it was 45.4 µM; in the assay on SF-295 CNS, 36.5 µM; with IGROV1 ovarian it was 36.5 µM; in the assay with HS 578T breast it was greater than 100 µM; in the assay on T-47D breast it was 99.6 µM. For the same molecule, the TGI in the assay with OVCAR-5 ovarian was 34.5 µM; in the assay on SK-MEL-5 melanoma it was 28 µM; in the assay on HL-60(TB) leukemia it was 32.1 µM.

For the molecule `NC(CC1=CS(=O)(=O)c2ccc(Cl)cc21)C(=O)O` (stereo unspecified), the TGI in the assay with NCI-H226 lung, in the assay on TK-10 renal, in the assay with SF-295 CNS, in the assay on IGROV1 ovarian, in the assay on HS 578T breast and with T-47D breast was greater than 100 µM throughout. For the same molecule, the TGI in the assay on OVCAR-5 ovarian, in the assay with SK-MEL-5 melanoma and in the assay with RPMI-8226 leukemia was greater than 100 µM in each case.

As for `c1csc(-c2ccc(-c3cccs3)c3nsnc23)c1`, the TGI is greater than 50.2 µM with NCI-H226 lung; greater than 100 µM in the assay with TK-10 renal; greater than 100 µM in the assay on SF-295 CNS; greater than 88.4 µM in the assay with IGROV1 ovarian; 47.2 µM in the assay with HS 578T breast; 1.8 µM with T-47D breast. The TGI was greater than 100 µM in the assay with OVCAR-5 ovarian, greater than 55.5 µM in the assay with SK-MEL-5 melanoma, greater than 82.4 µM in the assay on RPMI-8226 leukemia and 27.1 µM in the assay with HL-60(TB) leukemia.

Consider `COc1cc2c(cc1OC)[C@H]1CN3CCC[C@H]3C=C1c1ccc(OC)c(O)c1-2`, for which the TGI was 0.0102 µM in the assay on NCI-H226 lung; 0.114 µM in the assay with TK-10 renal; 0.00039 µM in the assay with SF-295 CNS; 0.00323 µM and 0.0137 µM in the assay with IGROV1 ovarian; 0.00677 µM with HS 578T breast; 0.132 µM in the assay with T-47D breast. Besides, the TGI in the assay on OVCAR-5 ovarian is 0.00431 µM and 0.0108 µM; with SK-MEL-5 melanoma, 0.00133 µM; with RPMI-8226 leukemia, 0.0012 µM.

As to `C[C@]12CC[C@@H]3c4ccc(O)cc4CC[C@H]3[C@@H]1C/C(=C\c1ccncc1)[C@@H]2O`, the TGI was 42.1 µM in the assay on NCI-H226 lung; greater than 100 µM in the assay on TK-10 renal; 70.2 µM with SF-295 CNS; 28.7 µM in the assay with IGROV1 ovarian; 20.9 µM with HS 578T breast; 13.8 µM in the assay on T-47D breast. Further, the TGI was greater than 100 µM with OVCAR-5 ovarian, 17.3 µM with SK-MEL-5 melanoma, 24.6 µM in the assay with RPMI-8226 leukemia and 44.9 µM in the assay on HL-60(TB) leukemia.

In the case of `Oc1[nH]c2ccc(Br)cc2c1N=NC(=S)Nc1ccc(F)cc1`, the TGI is 40.1 µM with NCI-H226 lung; 23.8 µM in the assay with TK-10 renal; 21.8 µM in the assay on SF-295 CNS; 23.2 µM in the assay with IGROV1 ovarian; 63.6 µM in the assay with HS 578T breast; 35.4 µM with T-47D breast. Besides, the TGI in the assay on OVCAR-5 ovarian is greater than 100 µM; with SK-MEL-5 melanoma it was 24.7 µM; with HL-60(TB) leukemia it was 6.84 µM.

Consider `CC[n+]1[b-](C(C)(C)C)n(/N=C/C(C)(C)C)[b-](C(C)(C)C)[n+]1CC`, for which the TGI in the assay on NCI-H226 lung, in the assay with TK-10 renal, in the assay on SF-295 CNS, in the assay on IGROV1 ovarian, in the assay on HS 578T breast and with T-47D breast was greater than 100 µM in each case. The TGI with OVCAR-5 ovarian and in the assay with SK-MEL-5 melanoma was greater than 100 µM each time.

In the case of `CCOC(=O)c1nc2ccc(C(F)(F)F)cc2nc1Oc1ccc(C#N)cc1`, the TGI was 34.8 µM in the assay with NCI-H226 lung; 84.3 µM with TK-10 renal; 31.5 µM with SF-295 CNS; 28.5 µM in the assay with IGROV1 ovarian; 36.5 µM in the assay with HS 578T breast; greater than 100 µM with T-47D breast. Further, the TGI in the assay on SK-MEL-5 melanoma, in the assay on RPMI-8226 leukemia and in the assay on HL-60(TB) leukemia was greater than 100 µM each time.

On to `CSc1c(C#N)c(N)n(-c2ccc(C)cc2)c(=O)c1C#N`, for which the TGI in the assay with NCI-H226 lung, with TK-10 renal, in the assay with IGROV1 ovarian, in the assay on HS 578T breast, in the assay with T-47D breast and in the assay with OVCAR-5 ovarian was greater than 100 µM each time. Moreover, the TGI with SK-MEL-5 melanoma, in the assay on RPMI-8226 leukemia and in the assay with HL-60(TB) leukemia was greater than 100 µM in each case.

Turning to `CCOC(CNCCC(=O)OC)OCC`, the TGI in the assay on NCI-H226 lung, in the assay on TK-10 renal, with SF-295 CNS, in the assay on IGROV1 ovarian, in the assay with HS 578T breast and in the assay with T-47D breast was greater than 10 µM each time. Besides, the TGI with SK-MEL-5 melanoma, in the assay with RPMI-8226 leukemia and with HL-60(TB) leukemia was greater than 10 µM each time.

For the molecule `O=c1[nH]cnc2c1ncn2[C@@H]1C[C@@H]1CO`, the TGI with NCI-H226 lung, with TK-10 renal, in the assay on IGROV1 ovarian, in the assay with HS 578T breast, in the assay on T-47D breast and with OVCAR-5 ovarian was greater than 100 µM in each case. Further, the TGI with SK-MEL-5 melanoma and in the assay on HL-60(TB) leukemia was greater than 100 µM each time.

On to `Nc1nc(Cl)cc(NCC2(CO)CCC(CCc3ccccc3)C2)n1` (stereo unspecified), for which the TGI in the assay with NCI-H226 lung was determined as 36.1 µM; in the assay with TK-10 renal, 48.9 µM; with SF-295 CNS it was 21.8 µM; in the assay with IGROV1 ovarian, 37 µM; with HS 578T breast, 52.7 µM; with T-47D breast it was 30.6 µM. Also, the TGI in the assay on OVCAR-5 ovarian turned out to be 33.1 µM; in the assay with SK-MEL-5 melanoma, 15.6 µM; in the assay with HL-60(TB) leukemia it was 33.1 µM.

`CC1NC(=O)[C@H](C)N(C)C(=O)[C@@H]2CCCN2C(=O)[C@@H](NC(=O)C(Cc2ccccc2)NC(=O)/C=C/C=C/C=C/C=C/C=C/C(=O)NC2=C(O)CCC2=O)COC(=O)[C@@H]2CCCN2C1=O` (stereo partly specified) (X26-[ξF]SP[NMeA][ξA]P; ester 2-C): the TGI with TK-10 renal is 92.1 µM; with SF-295 CNS, greater than 100 µM; with IGROV1 ovarian it was greater than 100 µM; with HS 578T breast it was greater than 100 µM; in the assay with T-47D breast it was greater than 100 µM; in the assay on OVCAR-5 ovarian, greater than 100 µM. Besides, the TGI in the assay on SK-MEL-5 melanoma, with RPMI-8226 leukemia and in the assay on HL-60(TB) leukemia was greater than 100 µM in each case.
